# Source: US5756501A, “Saturated and unsaturated pyridazino[4,5-B] indolizines useful as antidementia agents” (American Home Products Corporation, priority 1996, dated 1998)
# Where a chain is given by its changes, count along the chain named.
# Key:
# muscarinic M1 receptors [1] = target: T1, muscarinic M1 receptors (Rattus norvegicus, UniProt P08482); experiment: Tritiated pirenzepine ([^3 H]PZ) binding inhibition, rat brain cortex (M1 binding); conditions: [^3 H]PZ 0.5 nM, read-out: M1 Binding % Inhib. of [^3 H] Pz @ 10 μM
# T1 construct: The cortex of rat brains obtained from male Sprague-Dawley rats; from tissue; host or cells: rat brain cortex homogenate (male Sprague-Dawley)
# T1 sequence (P08482 1-460): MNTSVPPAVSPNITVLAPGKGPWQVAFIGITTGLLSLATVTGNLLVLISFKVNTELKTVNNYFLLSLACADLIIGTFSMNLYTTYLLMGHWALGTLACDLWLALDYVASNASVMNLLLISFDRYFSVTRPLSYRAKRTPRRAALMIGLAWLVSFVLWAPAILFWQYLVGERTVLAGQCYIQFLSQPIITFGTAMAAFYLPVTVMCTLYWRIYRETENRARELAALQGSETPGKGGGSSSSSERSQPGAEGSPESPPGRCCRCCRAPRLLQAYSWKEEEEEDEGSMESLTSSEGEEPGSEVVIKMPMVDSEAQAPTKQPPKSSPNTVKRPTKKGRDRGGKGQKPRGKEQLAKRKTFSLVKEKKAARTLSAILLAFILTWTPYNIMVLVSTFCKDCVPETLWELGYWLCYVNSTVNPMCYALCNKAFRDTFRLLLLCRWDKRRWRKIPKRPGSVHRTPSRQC
# Experimental: The cortex of rat brains obtained from male Sprague-Dawley rats (300 g) are homogenized using a hand-held teflon-coated pestle in 20 volumes of 0.32M sucrose. After centrifugation (747×g for 10 min at 4° C.), the resultant supernatant is decanted and recentrifuged (18677×g for 20 min at 4° C.). The resultant pellet is resuspended in the original volume of 0.32M sucrose and frozen. After thawing, the suspension is diluted (1:1 v/v) with 10 mM Na2 HPO4 /KH2 PO4 buffer (pH=7.4). [^3 H]PZ (0.5 nM, 0.04 μCi) is then incubated in multiple tubes with a 100 μl sample of the tissue suspension and 10 μl of a test compound solution (10 μM in water or ethanol) or vehicle (for control) in a sufficient quantity of the above phosphate buffer to give a total volume of 1 ml. One half of the tubes also contain 2 μM atropine sulfate which binds non-specifically with muscarinic receptors and provides for correcting the data for binding with other muscarinic receptors which may be present. After 60 minutes of incubation as 25° C. in the dark, the binding is terminated by vacuum filtration onto Whatman GF/B filters (pre-soaded for 60 minutes in 0.1% (w/v) polyethylenimine to reduce non-specific binding). After three washes with the phosphate buffer (4° C., 3 ml/wash) the vacuum is allowed to continue for two minutes before the filter-trapped radioactivity is assayed by liquid scintillation spectroscopy. Specific [^3 H]PZ binding is defined as total binding minus binding in the presence of 2 μM atropine sulfate. Data are pesented in Table I below as the percent inhibition ([control-test]/control×100%) of [^3 H]PZ binding by the test or reference compound.
# Human m1 receptors = Human m1 receptors (Homo sapiens, UniProt P11229); experiment: biochemical; assay type: binding
# Human m1 receptors, sequence (P11229 whole entry): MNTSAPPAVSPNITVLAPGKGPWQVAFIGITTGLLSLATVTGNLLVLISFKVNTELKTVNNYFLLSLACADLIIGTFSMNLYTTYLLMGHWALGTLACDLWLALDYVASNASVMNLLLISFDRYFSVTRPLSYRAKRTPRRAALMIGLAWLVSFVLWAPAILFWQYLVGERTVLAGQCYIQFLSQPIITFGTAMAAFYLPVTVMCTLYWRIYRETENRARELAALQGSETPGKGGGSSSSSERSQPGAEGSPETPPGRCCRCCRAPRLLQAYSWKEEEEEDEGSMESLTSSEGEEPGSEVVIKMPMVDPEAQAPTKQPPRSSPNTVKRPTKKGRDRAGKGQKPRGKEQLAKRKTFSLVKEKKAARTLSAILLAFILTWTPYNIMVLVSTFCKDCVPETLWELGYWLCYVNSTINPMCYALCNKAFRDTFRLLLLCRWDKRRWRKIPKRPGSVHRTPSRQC
# [2] = target: T2, M1 acetylcholine receptors (Homo sapiens, UniProt P11229); experiment: cell-based; conditions: CHO, 1 h; read-out: PI Turnover % above baseline
# T2 sequence (P11229 1-460): T1 sequence (P08482 1-460) with V5A, S254T, S309P, K320R, G337A, V413I
# Alzheimer's Disease = conditions: cited from earlier work; for improvement in memory: patients with mild to moderate Alzheimer's Disease
# [3] = in vivo; cited from earlier work
# m1 receptors = conditions: cited from earlier work
# [4] = quaternary ammonium compounds; cited from earlier work
# muscarinic M1 receptors [5] = target: T1, muscarinic M1 receptors; experiment: Tritiated pirenzepine ([^3 H]PZ) binding inhibition, rat brain cortex (M1 binding)
# muscarinic M2 receptors [6] = experiment: biochemical; assay type: binding, rat; conditions: selectivity M1 versus M2
# muscarinic M2 receptors [7] = target: muscarinic M2 receptors (Rattus norvegicus, UniProt P10980); experiment: biochemical; assay type: binding
# muscarinic M2 receptors (Rattus norvegicus, UniProt P10980), sequence (P10980 whole entry): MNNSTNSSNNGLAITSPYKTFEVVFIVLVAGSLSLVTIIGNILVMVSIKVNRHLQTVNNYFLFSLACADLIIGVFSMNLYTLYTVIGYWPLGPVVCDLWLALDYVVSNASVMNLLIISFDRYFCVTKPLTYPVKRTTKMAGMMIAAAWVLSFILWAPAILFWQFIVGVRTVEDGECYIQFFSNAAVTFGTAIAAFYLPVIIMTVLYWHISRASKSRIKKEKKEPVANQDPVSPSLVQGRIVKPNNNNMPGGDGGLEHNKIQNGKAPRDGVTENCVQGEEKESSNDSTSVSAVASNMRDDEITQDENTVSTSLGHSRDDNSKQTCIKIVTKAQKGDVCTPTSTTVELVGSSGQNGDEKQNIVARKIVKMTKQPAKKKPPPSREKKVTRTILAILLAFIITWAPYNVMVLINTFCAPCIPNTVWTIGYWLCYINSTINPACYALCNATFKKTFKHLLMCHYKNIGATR
smiles,measurement,setting,value
"CCN(CC)CCCNc1nnc(COC)c2c1cc1n2CCCC1 [Example 13, N,N-Diethyl-N'-[6,7,8,9-tetrahydro-4-(methoxymethyl)-pyridazino[4,5-b]indolizin-1-yl]-1.3-propanediamine]",inhibition at 10 µM,muscarinic M1 receptors [1],109%
"c1ccc(COCc2nnc(NCCCCN3CCOCC3)c3cc4n(c23)CCCC4)cc1 [Example 15, 6,7,8,9,-Tetrahydro-N-[4-(4-morpholinyl)butyl]-4-[(phenylmethoxy)methyl]-pyradazino[4,5-b]indolizin-1-amine]",inhibition at 10 µM,muscarinic M1 receptors [1],100%
"COCc1nnc(NCCCCN2CC3CCC(CC3)C2)c2cc3ccccn3c12 [Example 5, N-[4-(3-Azabicyclo[3.2.2]non-3-yl)butyl]-4-(methoxymethyl)pyridazino[4.5-b]indolizin-1-amine]",inhibition at 10 µM,muscarinic M1 receptors [1],100%
"CCN(CC)CCCNCc1nnc(NCCCN(CC)CC)c2cc3ccccn3c12 [Example 7, N,N-Diethyl-N'-[4-[[[3-(diethylamino)propyl]amino]methyl]-pyridazino[4.5-b]indolizin-1-yl]-1,3-propanediamine]",inhibition at 10 µM,muscarinic M1 receptors [1],99.3%
"FC(F)(F)c1nnc(NCCCCN2CC3CCC(CC3)C2)c2cc3n(c12)CCCC3 [Example 12, N-[4-(3-Azabicyclo[3.2.2]non-3-yl)butyl]-6,7,8,9-tetrahydro-4-(trifluoromethyl)-pyridazino[4,5-b]indolizin-1-amine]",Ki,Human m1 receptors,206 nM
FC(F)(F)c1nnc(NCCCN2CC3CCC(CC3)C2)c2cc3ccccn3c12 [Example 2],Ki,Human m1 receptors,140 nM
"COCc1nnc(NCCCCN2CC3CCC(CC3)C2)c2cc3n(c12)CCCC3 [Example 14, N-[4-(3-Azabicyclo[3.2.2]non-3-yl)butyl]-6,7,8,9-tetrahydro-4-(methoxymethyl)-pyridazino[4,5-b]indolizin-1-amine]",inhibition at 10 µM,muscarinic M1 receptors [1],101%
same,Emax,[2],73%
"COCc1nnc(NCCCN2CC3CCC(CC3)C2)c2cc3ccccn3c12 [Example 4, N-[3-(3-Azabicyclo[3.2.2]non-3-yl)propyl]-4-(methoxymethyl)pyridazino[4.5-b]indolizin-1-amine]",inhibition at 10 µM,muscarinic M1 receptors [1],100%
Cc1nnc(NCCN2CC3CCC(CC3)C2)c2cc3n(c12)CCCC3 [Example 9],Ki,Human m1 receptors,80 nM
"CCN(CC)CCCNc1nnc(COC)c2c1cc1ccccn12 [Example 3, N,N-Diethyl-N'-[4-(methoxymethyl)pyridazino[4,5-b]indolizin-1-yl]-1.3-propanediamine]",inhibition at 10 µM,muscarinic M1 receptors [1],98.4%
COC(=O)C1=CCCN(C)C1 [arecoline],improvement in memory,Alzheimer's Disease,memory improvement in patients with mild to moderate Alzheimer's Disease
same,half-life,[3],short half-life
C[C@@H]1O[C@H](C[N+](C)(C)C)C[C@H]1O [muscarine],activation of m1 receptors,m1 receptors,able to fully activate m1 receptors
same,ability to cross the blood brain barrier,[4],not able to cross the blood brain barrier
"FC(F)(F)c1nnc(NCCCCN2CC3CCC(CC3)C2)c2cc3ccccn3c12 [Example 1, N-[4-(3-Azabicyclo[3.2.2]non-3-yl)butyl]-4-(trifluoromethyl)pyridazino[4,5b]indolizine-1-amine]",Ki,Human m1 receptors,240 nM
"c1ccc(COCc2nnc(NCCN3CCN(c4ncccn4)CC3)c3cc4ccccn4c23)cc1 [Example 6, 4-[(Phenylmethoxy)methyl]-N-[2-[4-(2-pyrimidinyl)-1-piperazinyl]ethyl]pyridazino[4,5-b]indolizin-1-amine]",inhibition at 10 µM,muscarinic M1 receptors [1],98.3%
"Cc1nnc(NCCCN2CC3CCC(CC3)C2)c2cc3n(c12)CCCC3 [Example 10, N-[3-(3-Azabicyclo[3.2.2]non-3-yl)propyl]-6,7,8,9-tetrahydro-4-(methyl)pyridazino[4,5-b]indolizin-1-amine]",Ki,Human m1 receptors,9 nM
"Cc1nnc(NCCCCN2CC3CCC(CC3)C2)c2cc3n(c12)CCCC3 [Example 11, N-[4-(3-Azabicyclo[3.2.2]non-3-yl)butyl]-6,7,8,9-tetrahydro-4-methylpyridazino[4,5-b]indolizin-1-amine]",inhibition at 1 µM,"muscarinic M1 receptors [5]; 1 μM, rat cortex, [^3 H]PZ 0.5 nM, read-out: M1 Binding % Inhib. of [^3 H] Pz @ 1 μM",101%
same,Ki,"muscarinic M1 receptors [5]; Table II, rat brain M1",1.34 nM
same,M2/M1 Ki ratio,muscarinic M2 receptors [6],10
same,Ki,muscarinic M2 receptors [7],13.4 nM
same,Emax,[2],102%
"CCN(CC)CCCNc1nnc(C)c2c1cc1n2CCCC1 [Example 8, N,N-Diethyl-N'-[6,7,8,9-tetrahydro-4-(methyl)-pyridazino[4,5-b]indolizin-1-yl]-1.3-propanediamine]",inhibition at 10 µM,muscarinic M1 receptors [1],98%
C[N+](C)(C)CCOC(N)=O [carbachol],ability to cross the blood brain barrier,[4],not able to cross the blood brain barrier
Nc1c2c(nc3ccccc13)CCCC2 [tacrine],adverse side effects,Alzheimer's Disease; higher doses,adverse side effects especially at the higher doses
same,improvement in memory,Alzheimer's Disease,improvement in memory can be shown in patients with mild to moderate Alzheimer's Disease
